Drawing on ChEMBL document CHEMBL1146226, “Synthesis of desformylflustrabromine and its evaluation as an alpha4beta2 and alpha7 nACh receptor modulator” (Bioorg Med Chem Lett, 2007), this text covers IC50 and Activity for two compounds.

Test [1] deals with Neuronal acetylcholine receptor subunit alpha-7 (Homo sapiens, UniProt P36544). In words: Activity at human alpha7 nACh receptor expressed in Xenopus oocytes assessed as inhibition of acetyl chlone-induced currents by two-electrode voltage clamp method. The format is cell-based, Oocyte.
In test [2] the target is T1, Neuronal acetylcholine receptor; alpha4/beta2 (Homo sapiens, UniProt P17787+P43681). In words: Activity at human alpha-4-beta-2 nACh receptor expressed in Xenopus oocytes assessed as inhibition of acetyl chlone-induced currents by two-electrode voltage clamp method. The format is cell-based, Oocyte.
Test [3] addresses T1, Neuronal acetylcholine receptor; alpha4/beta2. In words: Activity at human alpha-4-beta-2 nACh receptor expressed in Xenopus oocytes assessed as potentiation of acetyl chlone-induced currents by two-electrode voltage clamp method relative to control. The format is cell-based. To be noted: Oocyte.

Chain of Neuronal acetylcholine receptor subunit alpha-7 (P36544 whole entry): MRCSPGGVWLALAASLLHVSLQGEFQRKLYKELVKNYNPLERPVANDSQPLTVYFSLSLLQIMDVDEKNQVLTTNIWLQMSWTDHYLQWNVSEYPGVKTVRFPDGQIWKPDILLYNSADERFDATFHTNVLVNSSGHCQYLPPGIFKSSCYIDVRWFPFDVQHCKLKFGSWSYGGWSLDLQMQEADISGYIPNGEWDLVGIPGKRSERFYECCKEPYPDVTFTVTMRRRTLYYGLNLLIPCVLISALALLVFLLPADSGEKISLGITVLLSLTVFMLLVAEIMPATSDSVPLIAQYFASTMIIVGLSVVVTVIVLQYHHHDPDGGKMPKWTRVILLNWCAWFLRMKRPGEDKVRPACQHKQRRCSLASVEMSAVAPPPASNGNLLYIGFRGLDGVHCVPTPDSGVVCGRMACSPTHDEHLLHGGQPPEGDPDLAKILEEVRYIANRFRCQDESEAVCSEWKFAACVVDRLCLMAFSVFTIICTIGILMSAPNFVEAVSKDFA
T1 sequence (P17787 whole entry): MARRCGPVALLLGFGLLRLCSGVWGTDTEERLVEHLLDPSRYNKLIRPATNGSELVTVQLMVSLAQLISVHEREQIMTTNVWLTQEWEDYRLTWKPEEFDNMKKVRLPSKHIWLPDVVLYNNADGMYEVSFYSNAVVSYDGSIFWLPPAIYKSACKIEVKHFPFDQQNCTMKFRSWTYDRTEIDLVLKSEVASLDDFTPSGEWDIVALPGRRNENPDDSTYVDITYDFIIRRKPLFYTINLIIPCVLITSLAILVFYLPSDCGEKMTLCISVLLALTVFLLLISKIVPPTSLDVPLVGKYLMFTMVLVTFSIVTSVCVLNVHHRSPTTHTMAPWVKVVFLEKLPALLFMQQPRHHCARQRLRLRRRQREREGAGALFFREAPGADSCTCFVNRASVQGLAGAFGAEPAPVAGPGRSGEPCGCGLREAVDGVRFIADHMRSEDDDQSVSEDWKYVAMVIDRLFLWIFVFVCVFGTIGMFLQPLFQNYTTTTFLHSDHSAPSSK
T1 sequence (P43681 whole entry): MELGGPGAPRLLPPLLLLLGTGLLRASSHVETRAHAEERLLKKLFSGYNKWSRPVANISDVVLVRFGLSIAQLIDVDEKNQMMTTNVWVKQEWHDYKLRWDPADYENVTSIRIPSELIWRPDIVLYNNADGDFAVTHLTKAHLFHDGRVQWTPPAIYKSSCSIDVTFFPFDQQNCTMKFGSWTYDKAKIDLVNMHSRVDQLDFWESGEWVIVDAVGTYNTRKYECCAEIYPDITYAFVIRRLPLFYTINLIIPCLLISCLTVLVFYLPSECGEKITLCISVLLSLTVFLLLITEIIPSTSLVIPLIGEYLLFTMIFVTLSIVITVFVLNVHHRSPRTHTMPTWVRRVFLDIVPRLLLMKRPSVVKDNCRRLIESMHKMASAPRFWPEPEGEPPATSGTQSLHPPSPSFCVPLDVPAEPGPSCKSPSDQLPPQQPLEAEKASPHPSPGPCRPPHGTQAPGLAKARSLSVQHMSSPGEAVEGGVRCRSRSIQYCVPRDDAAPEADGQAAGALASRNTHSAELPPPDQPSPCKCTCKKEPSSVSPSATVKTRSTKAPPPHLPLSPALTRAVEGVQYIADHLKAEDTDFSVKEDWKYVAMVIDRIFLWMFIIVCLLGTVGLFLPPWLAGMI

For the compound `CNCCc1cn(CC=C(C)C)c2cc(Br)ccc12` [DEFORMYLFLUSTRABROMINE B], in test [1], the IC50 was found to be 209 µM.

Take `C=CC(C)(C)c1[nH]c2cc(Br)ccc2c1CCNC` [DESFORMYLFLUSTRABROMINE]: the IC50 in test [2] worked out at 150 µM; in test [1], 44 µM. Also, the Activity in test [3] turned out to be 295%.
